Measurements taken from ChEMBL document CHEMBL5233210, “Pyrazolone structural motif in medicinal chemistry: Retrospect and prospect” (Eur J Med Chem, 2020).
≈ marks a conversion by molar mass, not a printed value.

Columns and labels:
[1] = system: Mycobacterium tuberculosis; experiment: Antibacterial activity against Mycobacterium tuberculosis H37Rv; format: functional
[2] = Selectivity index, ratio of IC50 mouse […] 3T3 cells to MIC for Mycobacterium tuberculosis H37Rv; format: toxicity; conditions: NIH 3T3 cells, read-out: Selectivity Index
Mus musculus [3] = experiment: Antihyperglycemic activity in db/db mouse assessed as decrease in blood glucose level at 100 mg/kg; format: functional; parameters: scale not given: the % may be the effect or the level left
Mus musculus [4] = experiment: Antihyperglycemic activity in db/db mouse assessed as decrease in blood glucose level at 20 mg/kg; format: functional; parameters: scale not given: the % may be the effect or the level left
Mus musculus [5] = experiment: Antihyperglycemic activity in db/db mouse assessed as decrease in blood glucose level at 2 mg/kg; format: functional; parameters: scale not given: the % may be the effect or the level left
[6] = Inhibition of porcine alpha amylase; parameters: species or system Sus scrofa
Alpha-glucosidase = Alpha-glucosidase (Saccharomyces cerevisiae S288c, UniProt P53341+P38158+P07265); experiment: Inhibition of Saccharomyces cerevisiae alpha glucosidase; format: protein assay
Mus musculus [7] = organism: Mus musculus; experiment: Antihyperglycemic activity in mouse assessed as reduction in serum glucose ratio after 2 hrs; format: functional; parameters: scale not given: the % may be the effect or the level left
Mus musculus [8] = organism: Mus musculus; experiment: Antihyperglycemic activity in mouse assessed as reduction in serum glucose ratio after 7 days; format: functional; parameters: scale not given: the % may be the effect or the level left; conditions: time 7 day
Liver carboxylesterase 1 = Liver carboxylesterase 1 (Homo sapiens, UniProt P23141); experiment: Inhibition of human CE1
Chain of Liver carboxylesterase 1 (P23141 whole entry): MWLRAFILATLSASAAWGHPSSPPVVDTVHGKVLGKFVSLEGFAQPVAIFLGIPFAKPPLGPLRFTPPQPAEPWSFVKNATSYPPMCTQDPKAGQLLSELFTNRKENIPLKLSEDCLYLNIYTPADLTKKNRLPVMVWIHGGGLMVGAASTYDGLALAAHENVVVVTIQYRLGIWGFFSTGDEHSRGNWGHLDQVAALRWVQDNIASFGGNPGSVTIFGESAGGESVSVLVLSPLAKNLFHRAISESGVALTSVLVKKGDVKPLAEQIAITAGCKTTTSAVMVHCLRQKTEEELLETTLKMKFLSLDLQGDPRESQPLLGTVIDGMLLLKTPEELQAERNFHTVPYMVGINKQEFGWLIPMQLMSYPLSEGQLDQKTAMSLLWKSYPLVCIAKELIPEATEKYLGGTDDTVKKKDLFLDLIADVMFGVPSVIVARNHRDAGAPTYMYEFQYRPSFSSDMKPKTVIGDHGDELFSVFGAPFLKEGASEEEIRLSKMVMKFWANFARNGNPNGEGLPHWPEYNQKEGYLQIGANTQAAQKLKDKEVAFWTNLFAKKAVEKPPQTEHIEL

[9] = biological target: Aldo-keto reductase family 1 member B1 (Homo sapiens, UniProt P15121); experiment: Inhibition of aldose reductase (unknown origin)

SMILES: CC1=NN(NCC(=O)c2ccccc2)C(=O)/C1=N/Nn1c(-c2ccccc2)nc2ccccc2c1=O
- MIC [1]: 3.11 µg/mL (≈ 6.49 µM)
- selectivity ratio [2]: 26.4

SMILES: CSc1ccc(Cc2c(C(F)(F)F)n[nH]c2O)cc1
- Activity (Mus musculus [3]): 68%
- Activity (Mus musculus [4]): 57%
- Activity (Mus musculus [5]): 30%

SMILES: Cc1c(C(=O)CS(=O)(=O)c2ccccc2)c(=O)n(-c2ccccc2)n1C
- IC50 [6]: 14.7 µM
- IC50 (Alpha-glucosidase): 63.66 µM
- Activity (Mus musculus [7]): 32.16%
- Activity (Mus musculus [8]): 13.34%

SMILES: Cc1ccc(C2=NN(c3ccccc3)C(=O)C23N=C([S@@+](C)[O-])N(C(=O)OC(C)(C)C)[C@]32C(=O)N(Cc3ccccc3)c3ccccc32)cc1 (stereo partly specified)
- IC50 (Liver carboxylesterase 1): 0.39 µM

SMILES: NC(=S)N1N=C(N)/C(=C\c2cc(-c3ccc(Cl)cc3)nn2-c2ccccc2)C1=O
- IC50 [9]: 6.3 µM
